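Step 1: Grow cells in 96-well plates. Step 2: Expose to compound for 48 hours at 5 concentrations. Step 3: Interpolate endpoints linearly; if unreached, use highest concentration. GI50 marks 50% less growth.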 Active and inactive are the calls of the source. Cut-off read from the data, not from the text of the source: active = GI50 up to about 1.1 µM and inactive = higher.
Columns and labels:
Assay in all cases: NCI-60 cell line screen, 48 h
UO-31 = system: UO-31
UACC-62 = system: UACC-62
OVCAR-3 = system: OVCAR-3
OVCAR-4 = system: OVCAR-4
UACC-257 = system: UACC-257
A549 = system: A549
SNB-78 = system: SNB-78
786-0 = system: 786-0
HOP-62 = system: HOP-62
SK-MEL-2 = system: SK-MEL-2
SNB-19 = system: SNB-19
K562 = system: K562
SF-539 = system: SF-539
M14 = system: M14

Measured: GI50

CC(C)(C)C1=CC(CCC(=O)Nc2ccccc2[N+](=O)[O-])=NC(S)N1 (stereo not given)
inactive: UO-31 > 100 µM | UACC-62 > 100 µM | OVCAR-3 > 100 µM | OVCAR-4 > 100 µM | UACC-257 > 100 µM | A549 > 100 µM | SNB-78 > 100 µM | 786-0 > 100 µM | HOP-62 > 100 µM | SK-MEL-2 > 100 µM | SNB-19 > 100 µM | K562 > 100 µM | SF-539 > 100 µM | M14 > 100 µM

COc1ccc(/C=C2\CCc3ccccc3C2=O)cc1OC
inactive: UO-31 29.2 µM | UACC-62 16 µM | OVCAR-3 33.6 µM | OVCAR-4 17.8 µM | UACC-257 18.9 µM | A549 38.2 µM | SNB-78 33.7 µM | 786-0 34.5 µM | HOP-62 76.7 µM | SK-MEL-2 31.1 µM | SNB-19 46 µM | K562 23.2 µM | SF-539 22.3 µM | M14 22.4 µM

O=C1NC(=O)C2C1C1C=C3c4ccccc4N(c4ccccc4)C32[C@H]2C(=O)NC(=O)[C@@H]12 (stereo not given in full)
inactive: UO-31 > 100 µM | UACC-62 > 100 µM | OVCAR-3 > 100 µM | OVCAR-4 > 100 µM | UACC-257 > 100 µM | A549 > 100 µM | SNB-78 > 100 µM | 786-0 > 100 µM | HOP-62 > 100 µM | SK-MEL-2 > 100 µM | SNB-19 > 100 µM | K562 > 100 µM | SF-539 > 100 µM | M14 > 100 µM

CCc1c(OC(C)=O)c2c(NC3OC(COC(C)=O)C(OC(C)=O)C(OC(C)=O)C3OC(C)=O)nc(SC)nc2oc1=O (stereo not given)
inactive: UO-31 > 100 µM | UACC-62 > 100 µM | OVCAR-3 > 100 µM | OVCAR-4 > 100 µM | UACC-257 > 100 µM | A549 > 100 µM | SNB-78 > 100 µM | 786-0 > 100 µM | HOP-62 > 100 µM | SK-MEL-2 > 100 µM | SNB-19 > 100 µM | K562 > 100 µM | SF-539 > 100 µM | M14 > 100 µM

O=[N+]([O-])c1ccc(Cl)c(C2SCc3nc4ccccc4n32)c1 (stereo not given)
inactive: UO-31 17.3 µM | UACC-62 39.9 µM | OVCAR-3 36.6 µM | UACC-257 28.1 µM | A549 44.9 µM | SNB-78 34.6 µM | 786-0 72.3 µM | SK-MEL-2 50.9 µM | SNB-19 41.5 µM | K562 27.7 µM | SF-539 31.9 µM

CN(C)CCn1cnc2ncccc2c1=O
inactive: UO-31 > 100 µM | UACC-62 > 100 µM | OVCAR-3 > 100 µM | OVCAR-4 > 100 µM | A549 > 100 µM | SNB-78 > 100 µM | 786-0 > 100 µM | HOP-62 > 100 µM | SK-MEL-2 > 100 µM | SNB-19 > 100 µM | K562 > 100 µM | SF-539 > 100 µM | M14 > 100 µM

Brc1ccc(-c2cc3c(cc2C2SCCS2)OCO3)cc1
inactive: UO-31 18.1 µM | OVCAR-3 16.6 µM | OVCAR-4 21.6 µM | UACC-257 30 µM | A549 18.2 µM | SNB-78 11.4 µM | 786-0 26.9 µM | HOP-62 31.4 µM | SK-MEL-2 28.8 µM | SNB-19 55.5 µM | K562 15.2 µM | SF-539 11.5 µM | M14 41.6 µM

Nc1nc(=O)n([C@@H]2CC[C@H](CO)O2)cc1F
inactive: UO-31 > 100 µM | OVCAR-3 > 100 µM | OVCAR-4 > 100 µM | UACC-257 > 100 µM | A549 > 100 µM | SNB-78 > 100 µM | 786-0 > 100 µM | HOP-62 > 100 µM | SK-MEL-2 > 100 µM | SNB-19 > 100 µM | K562 > 100 µM | M14 > 100 µM

From ChEMBL document CHEMBL1201862, “PubChem BioAssay data set” (2004)
